≈ marks a conversion by molar mass, not a printed value. Marks after values point to notes of the source that are not given here.
Experiments:
[1] = tested on: Candida albicans (98001); assay: Selective inhibitory effect, in vitro MIC (broth dilution, turbidity); format: cell-based; settings: 48 h, read-out: In vitro Minimum Inhibitory Concentration MIC
Description: (§1) Strains: Lactobacillus acidophilus, E. coli, Staphylococcus epidermidis, yeast, thermophilic Bifidobacterium, Staphylococcus aureus (26112), Alpha-Hemolytic Streptococcus (32209), Shigella (32013), Streptococcus pneumoniae (31001), Catarrhal, Corynebacterium diphtheriae (38101), Escherichia coli (44113), Pseudomonas aeruginosa (10211), Salmonella Typhi and Candida albicans (98001), Catarrhal is isolated from specimen collected from the throat in the bacterial laboratory, Candida albicans is donated by Guangzhou Institute for Food and Drug Control, all other strains are provided by Beijing Institute for Food and Drug Control; Trichophyton gypseum (4097), Trichophyton cerebriforme, Trichophyton tonsurans, Microsporum gypseum, Microsporum lanosum, Epidermophyton floccosum (previously known as Trichophyton floccosum) and Trichophyton rubrum are donated by Shanghai Huashan Hospital.
(§2) 3. Culture medium: nutrient broth, 1% dextrose broth, 1% serum broth, Sabouraud agar plate, prepared by conventional preparation method.
(§3) Drug preparation: Use nutrient broth to prepare a series of 14 drug solution in which the content of drug per ml are, 0.1 g, 0.05 g, 0.025 g . . . 1.22×10^−5 g respectively and the total volume of each test tube is 1 ml, and sterile by steam sterilization. […]

[2] = tested on: Microsporum lanosum; assay: Selective inhibitory effect, in vitro MIC; format: cell-based; settings: read-out: In vitro Minimum Inhibitory Concentration MIC
Description: as §1, §2
(§4) Drug preparation: Use nutrient broth to prepare a series of 14 drug solution in which the content of drug per ml are, 0.1 g, 0.05 g, 0.025 g . . . 1.22×10^−5 g respectively and the total volume of each test tube is 1 ml, and sterile by steam sterilization. For Streptococcus testing, 1% glucose is added to the sterile drug solution, for Streptococcus pneumoniae and Corynebacterium diphtheria, 10% inactivated rabbit serum is added, and for Candida albicans, the drug solution is prepared by using Sabouraud broth.
(§5) Control: for strain control, testing bacteria is added to non-drug culture media; for drug control, no bacteria is added to the drug solution.
(§6) For each drug solution at different concentration and for bacteria control, add 1 ml of 1:2000 testing bacteria solution (8 hours cultured substance) to each tube, incubate bacteria culture at 37° C. for 18 hours and observe the results. For Candida albicans, 24 hours cultured substance is used, and incubate bacteria culture at 28° C. for 48 hours after bacteria is added to the drug solution and then observe the results. Turbidity is the indicator and visually observe each tube to determine if there is any bacterial growth.
(§7) Determine minimum inhibitory concentration (MIC): MIC is the lowest concentration of an antimicrobial that will inhibit the visible growth of a microorganism.

[3] = tested on: Epidermophyton floccosum; assay: Selective inhibitory effect, in vitro MIC; format: cell-based; settings: read-out: In vitro Minimum Inhibitory Concentration MIC
Description: as §1, §2, §4, §5, §6, §7

[4] = tested on: Trichophyton cerebriforme; assay: Selective inhibitory effect, in vitro MIC; format: cell-based; settings: read-out: In vitro Minimum Inhibitory Concentration MIC
Description: as §1, §2, §4, §5, §6, §7

[5] = tested on: Microsporum gypseum; assay: Selective inhibitory effect, in vitro MIC; format: cell-based; settings: Nannizzia gypsea, read-out: In vitro Minimum Inhibitory Concentration MIC
Description: as §1, §2, §4, §5, §6, §7

[6] = tested on: Trichophyton gypseum (4097); assay: Selective inhibitory effect, in vitro MIC; format: cell-based; settings: Nannizzia gypsea, read-out: In vitro Minimum Inhibitory Concentration MIC
Description: as §1, §2, §4, §5, §6, §7

[7] = tested on: Trichophyton tonsurans; assay: Selective inhibitory effect, in vitro MIC; format: cell-based; settings: read-out: In vitro Minimum Inhibitory Concentration MIC
Description: as §1, §2, §4, §5, §6, §7

[8] = tested on: Trichophyton rubrum; assay: Selective inhibitory effect, in vitro MIC; format: cell-based; settings: read-out: In vitro Minimum Inhibitory Concentration MIC
Description: as §1, §2, §4, §5, §6, §7

[9] = tested on: Helicobacter pylori (Hp) ATCC43504; assay: In vitro anti-Helicobacter pylori effect, minimum inhibitory concentration (filter paper on Columbia Blood Agar Plate); format: cell-based; settings: Helicobacter pylori ATCC43504, 37° C. micro-aerobic, 72 hours
[10] = in vivo; settings: orogastric gavage; for LD50 at 14 days: both, KM, mouse, in vivo, po, Bliss method
Method: (§8) 1.3 Testing animal: KM mice, SPF grade, weight 18-22 g, equal numbers of male and female, obtained from Animal Laboratory Center of Guangzhou University of Chinese Medicine, Certificate number: SCXK (Yue) 2008-0020.
(§9) 2.1 Preparation of drug solution: weight a predetermined quantity of patchouli alcohol and put it into a beaker, add suitable amount of peanut oil into the beaker as solvent, mix while heating until the patchouli alcohol is dissolved. Cool under room condition and then add peanut oil to the predetermined amount to obtain the patchouli alcohol solution.
(§10) 2.2 Animal grouping: Take 200 mice, weight between 18˜22 g, divided by weight and randomly divided into 4 groups, namely: orogastric gavage drug group, orogastric gavage control group (equal volume of peanut oil is used), intraperitoneal injection drug group, Intraperitoneal injection control group (equal volume of peanut oil is used), each group includes 50 mice, equal numbers of male and female, raise for one week before experiment for the mice to adapt to the environment, water fasting for 24 hours before experiment.
Set the initial dose at 7.90 g/kg, at a ratio of 1:0.75 divide 5 groups, each group includes 10 mice, equal numbers of male and female, give patchouli alcohol solution to mice once by orogastric gavage according to the dosage at 2.5 g/kg, 3.33 g/kg, 4.44 g/kg, 5.93 g/kg, 7.90 g/kg for each group. Observe consecutively for 14 days, record toxicity reaction and lethal rate every day, and calculate the medium lethal dose (LD50) by Bliss method.

[11] = tested on: Streptococcus pneumoniae (31001); assay: Selective inhibitory effect, in vitro MIC (broth dilution, turbidity); format: cell-based; settings: 10% inactivated rabbit serum added, 37° C., 18 hours, read-out: In vitro Minimum Inhibitory Concentration MIC
Description: as §1, §2, §3

[12] = tested on: Helicobacter pylori; assay: In vivo anti-Helicobacter pylori effect, Hp infection model, rapid urease test of pyloric antrum tissue; set-up: species or system BALB/c mice; settings: 1 time per day for 8 weeks
Method: (§11) Take SPF (specific pathogen free) BALB/c mice, equal numbers of male and female, each weight 18˜20 g; divide randomly into three groups, which are normal control group, model control group and triple therapy group. Give the corresponding experimental drugs according to table 1 below. Hp infection model is prepared by using antibiotics and oral gavage of Hp. Day 1, oral gavage 0.5 ml/mouse antibiotics mixture (0.25 ml ampicillin (20 mg/ml), 0.15 ml gentamicin (4 mg/ml), 0.1 ml azithromycin (50 mg/ml)) for three consecutive days for all testing animals, use equal volume of physiological saline for normal control group; starting from day 4, water fasting for 12 hours, oral gavage freshly prepared Hp suspended solution (0.5 ml/mouse/day, concentration 10^8 CFU/ml) for seven consecutive days, use equal volume of physiological saline for normal control group. Starting from day 11, oral gavage testing drug to the testing animals (use equal volume of physiological saline for normal control group), 1 time per day for 8 consecutive weeks. After the last drug administration, fasting for 24 hours. Take serum sample by orbital bleeding and centrifugation. Test for Helicobacter pylori urease antibody (according to the instruction of the instrument); sacrifice mice, tissue from pyloric antrum is first taken for rapid urease test and then observe for 3 minutes, and determine the test results in which strong positive refers to color change at peripheral portion from yellow to red within 1 minute, weak positive refers to color change within 3 minutes, and negative refers to no color change; the remaining stomach tissue is fixed in 10% formalin, then embed and cutting for carbol-fuchsin test, observe the Hp infection condition of the gastric mucosa and determine the condition.

[13] = in vivo; settings: for LD50 at 14 days: both, KM, mouse, in vivo, Bliss method
Method: as §8, §9, §10
Set the initial dose at 6.32 g/kg, at a ratio of 1:0.75 divide 5 groups, each group includes 10 mice, equal numbers of male and female, give patchouli alcohol solution to each of the mice once by intraperitoneal injection according to the dosage at 2.0 g/kg, 2.67 g/kg, 3.56 g/kg, 4.70 g/kg, 6.32 g/kg for each group. Observe consecutively for 14 days, record toxicity reaction and lethal rate every day, and calculate the medium lethal dose (LD50) by Bliss method.

[14] = cited from earlier work
[15] = tested on: Helicobacter pylori; assay: In vivo anti-Helicobacter pylori effect, Hp infection model, carbol-fuchsin staining of stomach tissue; set-up: species or system BALB/c mice
Method: as §11
Histopathological findings: after staining stomach tissue by carbol-fuchsin method, the Hp become […] in color, have a curved or rod shape, and mainly locate in gastric pit surface and mucus.

[16] = tested on: Helicobacter pylori; assay: In vivo anti-Helicobacter pylori effect, Hp infection model, serum urease antibody to Helicobacter pylori; set-up: species or system BALB/c mice; settings: 1 time per day for 8 weeks
Method: as §11

[17] = High Dose 40 mg/kg oral gavage, 10 animals
[18] = Low Dose 10 mg/kg oral gavage, 11 animals
[19] = Medium Dose 20 mg/kg oral gavage, 11 animals
[20] = mice, intraperitoneal injection
[21] = mice, intraperitoneal injection, pre-test
[22] = 10 mg/kg oral gavage, 11 animals
[23] = 20 mg/kg oral gavage, 11 animals
[24] = 40 mg/kg oral gavage, 10 animals

SMILES: CC(=O)N1CCN(c2ccc(OCC3COC(Cn4ccnc4)(c4ccc(Cl)cc4Cl)O3)cc2)CC1 (stereo not drawn) [Ketoconazole]
- MIC [1]: 12200 µg/mL (≈ 23000 µM)
- MIC [2]: 24500 µg/mL (≈ 46100 µM)
- MIC [3]: 383 µg/mL (≈ 721 µM)
- MIC [4]: 383 µg/mL (≈ 721 µM)
- MIC [5]: 383 µg/mL (≈ 721 µM)
- MIC [6]: 383 µg/mL (≈ 721 µM)
- MIC [7]: 49000 µg/mL (≈ 92200 µM)
- MIC [8]: 24400 µg/mL (≈ 45900 µM)

SMILES: CC1(C)S[C@@H]2[C@H](NC(=O)[C@H](N)c3ccc(O)cc3)C(=O)N2[C@H]1C(=O)O [Amoxicillin, reference compound]
- MIC (minimum inhibitory concentration) [9]: 120 µg/mL (≈ 328 µM)

SMILES: C[C@H]1CC[C@@]2(O)C(C)(C)[C@@H]3CC[C@@]2(C)[C@H]1C3 [Patchouli Alcohol, (1R,4S,4aS,6R,8aS)-4,a,9,9-tetramethyloctahydro-1,6-methanonaphthalen-1(2H)-ol]
- LD50 at 14 days ([10]; LD50 95% confidence interval lower limit, mice): 4040 mg/kg
- LD50 at 14 days ([10]; LD50 95% confidence interval upper limit, mice): 5500 mg/kg
- LD50 at 14 days ([10]; LD50, mice, peanut oil solution): 4690 mg/kg
- autopsy of the dead mice ([10]; mice): no obvious abnormality is found in major organs
- time at which death usually occurs ([10]; mice): 6˜12 hours
- maximum lethal dose ([10]; mice, pre-test): 7900 mg/kg
- minimum lethal dose ([10]; mice, pre-test): 2500 mg/kg
- MIC [11]: 510 µg/mL (≈ 2290 µM)
- Strong positive (count) [12, 17]: 2 count
- Total Positive Rate (%) [12, 17]: 40.00%
- Weak positive (count) [12, 17]: 2 count
- Strong positive (count) [12, 18]: 0 count
- Total Positive Rate (%) [12, 18]: 36.36%
- Weak positive (count) [12, 18]: 4 count
- Strong positive (count) [12, 19]: 0 count
- Total Positive Rate (%) [12, 19]: 27.27* %
- Weak positive (count) [12, 19]: 3 count
- MIC (minimum inhibitory concentration) [9]: 78 µg/mL (≈ 351 µM)
- LD50 at 14 days ([13]; LD50, mice, intraperitoneal acute toxicity (sentence prints orogastric gavage), peanut oil solution): 3140 mg/kg
- LD50 at 14 days ([13]; ip, LD50 95% confidence interval lower limit, mice, intraperitoneal acute toxicity): 2660 mg/kg
- LD50 at 14 days ([13]; ip, LD50 95% confidence interval upper limit, mice, intraperitoneal acute toxicity): 3680 mg/kg
- autopsy of the dead mice [13, 20]: no obvious abnormality is found in major organs
- time at which death usually occurs [13, 20]: 6˜12 hours
- maximum lethal dose [13, 21]: 6320 mg/kg
- minimum lethal dose [13, 21]: 2000 mg/kg
- solubility in ethanol and ether and common organic solvent ([14]; ethanol, ether, common organic solvent): soluble
- solubility in water ([14]; water): insoluble
- animals with blue Hp found in the gastric pit (positive/total) ([15]; high dose group): 6/11
- infection rate ([15]; high dose group): 60%
- animals with blue Hp found in the gastric pit and the mucosal surface (positive/total) ([15]; low dose group): 9/11
- infection rate ([15]; low dose group): 81.81%
- animals with blue Hp found in the gastric pit (positive/total) ([15]; medium dose group): 7/11
- infection rate ([15]; medium dose group): 63.63%
- Positive (Count) [16, 22]: 0 Count
- Positive rate (%) [16, 22]: 0.00** %
- Positive (Count) [16, 23]: 0 Count
- Positive rate (%) [16, 23]: 0.00** %
- Positive (Count) [16, 24]: 0 Count
- Positive rate (%) [16, 24]: 0.00** %

Reference: patent publication US20140031434A1, “Use of Patchouli Alcohol in Preparation of Drug Against Helicobacter Pylori” (priority 2011, published 2014)
